According to patent publication US8173385B2, “Method for stabilization of peptides in a biological sample” (Kyowa Medex Co., Ltd., priority 2005, dated 2012):
Like-named read-outs stand apart in the source and are kept apart here.

Columns and labels:
[1] = system: neutral endopeptidase (NEP); experiment: Effect of addition of a saccharide on degradation of substance P by neutral endopeptidase (NEP); type: biochemical; details: for Degradation of substance P by NEP: result in words
Procedure: Similarly, samples each comprising 150 μL of human plasma, 150 μL of a 200 pg/mL aqueous solution of substance P, 300 μL of a 400 mg/mL aqueous solution of glucose and 50 μL of an enzyme solution (respective NEP concentrations; 0 U/mL, 0.1 U/mL, 1.0 U/mL and 10.0 U/mL) were prepared.
Further, samples each comprising 150 μL of human plasma, 150 μL of a 200 pg/mL aqueous solution of substance P, 300 μL of a 10 mmol/L aqueous solution of phosphoramidon and 50 μL of an enzyme solution (respective NEP concentrations; 0 U/mL, 0.1 U/mL, 1.0 U/mL and 10.0 U/mL) were prepared.

[2] = system: substance P in human plasma
Procedure: (§1) To 50 μL portions of human plasma prepared in the same manner as in Example 1 was added a 400 mg/mL aqueous solution of glucose (special grade; Kanto Chemical Co., Inc.) prepared with purified water (100 μL), followed by mixing. […] The concentrations of substance P in the thawed portions of sample N were measured in the same manner as in Example 1 to calculate the residual rates, which are the index for the stability of substance P in plasma.
(§2) To 50 μL portions of human plasma prepared in the same manner as in Example 1 was added a 200 pg/mL aqueous solution of substance P (50 μL) to prepare six portions of sample.
(§3) After the preparation, the samples were frozen at −80° C. and then thawed at room temperature 0 day, 3 days and 13 days after the freezing. The concentrations of substance P in the thawed samples were measured in the same manner as in Example 1 using Substance P EIA Kit (Cayman) to calculate the residual rates, which are the index for the stability of substance P in plasma.

[3] = system: substance P in human plasma; experiment: Stabilization of substance P in plasma by addition of a saccharide when frozen at −80° C.; details: Example 6: same additive solutions
Procedure: as §1, §2, §3

[4] = system: substance P in human plasma; details: 4° C. 18 hours
Procedure: To 50 μL portions of the human plasma were respectively added a 200 mg/mL aqueous solution of xylose, a 200 mg/mL aqueous solution of glucose, a 200 mg/mL aqueous solution of mannose and a 200 mg/mL aqueous solution of galactose (100 μL each), followed by mixing.
Measurement of substance P in samples A to D and the control sample was carried out in duplicate in the following manner, using Substance P EIA Kit (Cayman) according to the manual attached to the kit.
The above kit is a kit for enzyme immunoassay by the competitive method using, as a competitive substance, substance P bound to acetylcholine esterase (substance P AchE tracer). The measurement with this kit is carried out by allowing substance P in a sample and the competitive substance to competitively react with anti-substance P antibody on a solid phase and reacting acetylcholine esterase in the competitive substance bound to the anti-substance P antibody on a solid phase with Ellman's reagent to develop color, followed by the measurement of the absorbance. Then, the concentration of substance P in the sample can be determined based on a previously prepared calibration curve. […]

[5] = Stability of substance P in aqueous solution without plasma (Substance P EIA Kit); type: physicochemical; details: for Concentration of substance P measured in the substance P solution: 200 pg/mL aqueous solution
Procedure: When the 200 pg/mL aqueous solution of substance P was, without being mixed with the human plasma, subjected to measurement of substance P under the present measurement conditions including incubation at 4° C. for 18 hours, the obtained value was 226.16 pg/mL. […] On the other hand, as shown in the experiment on the control sample, when the sample having the initial substance P concentration of 116.93 pg/mL was subjected to measurement under the present measurement conditions including incubation at 4° C. for 18 hours, the obtained average substance P concentration was 60.57 pg/mL.
The concentrations of substance P in the human plasma used for the preparation of the samples subjected to the incubation for 16 hours, 24 hours and 48 hours were determined to be 15.02 pg/mL, 4.95 pg/mL and 5.71 pg/mL, respectively. The concentrations of substance P in the substance P solution used for the preparation of the samples subjected to the incubation for 16 hours, 24 hours and 48 hours were determined to be 211.1 pg/mL, 208.4 pg/mL and 197.8 pg/mL, respectively. From these measurement values, the theoretical values of the concentrations of substance P in the samples were calculated in the same manner as in Example 1, and the residual rates were calculated from the theoretical values and the measurement values.

CC(C)C[C@H](NP(=O)(O)O[C@@H]1O[C@@H](C)[C@H](O)[C@@H](O)[C@H]1O)C(=O)N[C@@H](Cc1c[nH]c2ccccc12)C(=O)O [Phosphoramidon, phosphoramidon]
Degradation of substance P by NEP [1]: inhibited
Residual rate, Day 3 ([2]; human, 3 days): 29.0%
Residual rate, Day 13 ([2]; human, 13 days): 25.6%

magnesium gluconate
Residual rate, Day 3 ([3]; thawed 3 days after the freezing): 42.6%
Residual rate, Day 13 ([3]; thawed 13 days after the freezing): 40.1%

O=C([O-])CN(CCN(CC(=O)[O-])CC(=O)O)CC(=O)O.[Na+].[Na+] [EDTA•2Na, ethylenediaminetetraacetic acid.disodium]
Residual rate, Day 3 [2]: 26.4%
Residual rate, Day 13 [2]: 32.6%

substance P
Average substance P concentration in plasma without saccharide ([4]; control sample, initial substance P concentration 116.93 pg/mL): 60.57 pg/mL
Stability of substance P in the presence of plasma ([4]; no saccharide, result in words): unstable
Residual rate of substance P, NEP concentration 0 U/mL ([1]; human plasma + substance P ± 400 mg/mL glucose or 10 mmol/L phosphoramidon solution, enzyme solution NEP 0 U/mL): 100.0%
Residual rate of substance P, NEP concentration 0.1 U/mL ([1]; human plasma + substance P ± 400 mg/mL glucose or 10 mmol/L phosphoramidon solution, enzyme solution NEP 0.1 U/mL): 102.2%
Residual rate of substance P, NEP concentration 1.0 U/mL ([1]; human plasma + substance P ± 400 mg/mL glucose or 10 mmol/L phosphoramidon solution, enzyme solution NEP 1.0 U/mL): 93.3%
Residual rate of substance P, NEP concentration 10.0 U/mL ([1]; human plasma + substance P ± 400 mg/mL glucose or 10 mmol/L phosphoramidon solution, enzyme solution NEP 10.0 U/mL): 84.0%
Degradation of substance P by NEP [1]: degraded by NEP
Concentration of substance P measured in the substance P solution ([5]; incubation 16 hours at 4° C.): 0.2111 ng/mL
Concentration of substance P measured in the substance P solution ([5]; incubation 24 hours at 4° C.): 0.2084 ng/mL
Concentration of substance P measured in the substance P solution ([5]; incubation 48 hours at 4° C.): 0.1978 ng/mL
Stability of substance P in the aqueous solution ([5]; 4° C. 18 hours, result in words): stable
Concentration of substance P measured in the 200 pg/mL aqueous solution of substance P ([5]; without human plasma, incubation at 4° C. for 18 hours): 0.22616 ng/mL
